From a compilation of properties of binary mixtures (doi:10.1021/acs.jpcb.9b10454)

Assay: xn = mol fraction of the nth substance listed
Settings: 303.15 K, 100 kPa

CCn1cc[nH+]c1.O=S(=O)([N-]S(=O)(=O)C(F)(F)F)C(F)(F)F + c1c[nH]cn1
Settings	electrical conductivity [S/m]	viscosity [mPa·s]
x1 = 0.194	0.891	–
x1 = 0.252	–	20.7
x1 = 0.333	–	23
x1 = 0.385	0.616	–
x1 = 0.501	–	25.3
x1 = 0.597	0.587	–
x1 = 0.601	–	25.6
x1 = 0.671	–	27.7
x1 = 0.79	0.556	–
x1 = 0.802	–	24.3
x1 = 0.889	0.512	–
x1 = 0.901	–	26.7
x1 = 1	–	38.8
